Experimental data as given in article PMC10418599, “Quercetins, Chlorogenic Acids and Their Colon Metabolites Inhibit Colon Cancer Cell Proliferation at Physiologically Relevant Concentrations” (International Journal of Molecular Sciences, 2023).
Each block holds one compound with its values, some of them ahead of it.

Assays:
[1] = test system: SW480 cell line; test: Cell metabolism of phenolic compounds (UHPLC-HR-MS analysis of cell media); format: in vitro ADME, Human; details: for Concentration of substrate in cell medium: initial 50 μmol/L
Protocol: (§1) To analyze the metabolism of phenolic compounds by Caco-2 and SW480 cells, the cell culture media were withdrawn after 0, 24, 48 and 72 h of incubation. Phenolic compounds were extracted from the culture media by following the procedure reported in Sala et al.. Briefly, 100 μL of cold methanol was mixed with 100 μL of cell media and vortexed for 1 min. The mixture was then centrifuged at 10,000× g (4 °C, 5 min) and the supernatant was injected, after appropriate dilution, in an ultra-high-performance liquid chromatography high-resolution mass spectrometry system (UHPLC-HR-MS).
(§2) The HR-MS system consisted of a UHPLC Ultimate 3000 separation module, equipped with a C18 column (Acquity UPLC HSS C18 reversed phase, 2.1 × 100 mm, 1.8 μm particle size, Waters, Milan, Italy) and coupled with a Q Exactive Hybrid Quadrupole-Orbitrap Mass Spectrometer (Thermo Scientific, San Jose, CA, USA). Mobile phases consisted of a mixture of water containing formic acid (0.1%) (mobile phase A) and acetonitrile containing formic acid (0.1%) (mobile phase B). The gradient began at 1% B, reaching 40% B over 20 min. To wash the column, the mobile phase B concentration was raised to 99% over 6 min and kept at 99% for 3 min before returning to the initial conditions. The MS and MS/MS conditions are fully described in Martini et al..
(§3) Quantification was carried out by building external calibration curves with the available standard compounds.

[2] = test system: Caco-2 cell line; test: Anti-proliferative assay (MTS cell proliferation assay); format: cell-based, Human; details: for IC50: maximum tested concentration 200 μmol/L
Protocol: (§4) Human colon cancer Caco-2 and SW480 cell lines were cultured and grown as previously reported. […] Incubation was carried out for 24, 48 and 72 h. Data were compared with a control solution containing 0.5% DMSO in cell medium and representing 100% proliferation. In addition, six different mixes were prepared to simulate the simultaneous presence of parent phenolic compounds and metabolites by mimicking the possible human inter-individual variability in colon metabolism of phenolic compounds. Two sets of mixes were prepared to consider the colon metabolism of quercetins and chlorogenic acids. […] For each set of mixtures (QUE and CGA mixtures), three different mixes were formulated. One set of mixes mimicked the low-producers metabotype and contained 90% parent compounds and 10% metabolites (mixes QUE-LP and CGA-LP). Another set of mixes was prepared to simulate the high-producers metabotype and contained 10% parent compounds and 90% metabolites (mixes QUE-HP and CGA-HP). Finally, a third set of mixes was prepared with equimolar amounts of all the compounds (mixes QUE-EQ and CGA-EQ). […] Cell proliferation was assessed by the MTS assay as previously described. […] The IC50 values were calculated through non-linear regression analysis by plotting the base-10 logarithm of the phenolic compound concentration vs. the percentage of inhibition.

[3] = test system: SW480 cell line; test: as above; format: cell-based, Human; details: for IC50: maximum tested concentration 200 μmol/L
Protocol: as §4

[4] = cited from earlier work; for Maximum value in human fecal water: after raspberry supplementation, ref 49 (Gill et al.)
[5] = Cell metabolism of phenolic compounds (UHPLC-HR-MS analysis of cell media); format: in vitro ADME, Human; details: human, SW480 cells; SW480, 72 h
Protocol: as §1, §2, §3

[6] = test system: Caco-2 cell line; test: in vitro; format: in vitro ADME; details: human, 50 μmol/L
Protocol: as §1, §2, §3

[7] = in vitro; format: in vitro ADME; details: human
Protocol: as §1, §2, §3

[8] = test system: SW480 cells; test: Cell cycle analysis by flow cytometry; format: cell-based, Human; details: 72 h, concentration equal to the IC50 value, vs control
Protocol: Cell cycle analysis was carried out in both Caco-2 and SW480 cell lines as previously reported by Nicoletti et al.. Cells were seeded in 6-well plates at a density of 4000 and 8000 cells/cm^2 for Caco-2 and SW480, respectively.
After 72 h of incubation, the cells were washed with PBS, detached from the 6-well plates with 500 μL of trypsin and resuspended in 1000 μL of medium. Subsequently, they were centrifuged at 3500 rpm for 5 min. After removing the supernatant, the pellet was resuspended with 400 μL of Nicoletti’s solution (sodium citrate 0.1%, Triton X-100 0.1% and 20 μg/mL propidium iodide). After 15 min of incubation at 4 °C in the dark, cell cycle analysis was performed with an Epics XL MCL flow cytometer (Beckman Coulter, Brea, CA, USA).
The data were compared with a control solution containing 0.5% DMSO in the cell medium.

[9] = Homo sapiens, Caco-2, 24 h of incubation
[10] = Homo sapiens, Caco-2, 48 h of incubation
[11] = Homo sapiens, Caco-2, 72 h of incubation
[12] = Homo sapiens, SW480, 48 h of incubation
[13] = Homo sapiens, SW480, 72 h of incubation
[14] = no dietary restriction or supplementation, ref 47 (Jenner et al.)

Concentration of substrate in cell medium ([1]; SW480, 24 h): 7.13 ± 0.13 µM
Concentration of substrate in cell medium ([1]; SW480, 48 h): 5.41 ± 0.07 µM
Concentration of substrate in cell medium ([1]; SW480, 72 h): 6.17 ± 0.05 µM
IC50 ([2]; Caco-2, 24 h of incubation): > 200 µM
IC50 ([2]; Caco-2, 48 h of incubation): 27.5 ± 1 µM
IC50 ([2]; Caco-2, 72 h of incubation): 8.8 ± 0.2 µM
IC50 ([3]; SW480, 48 h of incubation): > 200 µM
IC50 ([3]; SW480, 72 h of incubation): > 200 µM
SMILES: O=C(/C=C/c1ccc(O)c(O)c1)OC1CC(O)(C(=O)O)CC(OC(=O)/C=C/c2ccc(O)c(O)c2)C1O (stereo not shown) [3,5-di-O-Caffeoylquinic acid, 3,5-di-O-caffeoylquinic acid]
Inhibition of Caco-2 growth ([2]; 100 μmol/L, 72 h): almost complete inhibition
Percentage of inhibition of SW480 growth ([3]; 100 μmol/L, 72 h): 10.9%

Concentration of substrate in cell medium ([1]; SW480, 24 h): 21.62 ± 0.48 µM
Concentration of substrate in cell medium ([1]; SW480, 48 h): 15.84 ± 0.09 µM
Concentration of substrate in cell medium ([1]; SW480, 72 h): 10.30 ± 0.36 µM
IC50 [2, 9]: 79.5 ± 1.4 µM
IC50 [2, 10]: 14.7 ± 0.8 µM
IC50 [2, 11]: 3 ± 0.1 µM
IC50 [3, 12]: > 200 µM
IC50 [3, 13]: 92.2 ± 6.9 µM
SMILES: O=C(O)Cc1ccc(O)c(O)c1 [3-(3′,4′-Dihydroxyphenyl)acetic acid, 3-(3′,4′-dihydroxyphenyl)acetic acid]
Maximum value in human fecal water [4]: 442 µmol/L

recovery at 72 h [5]: > 80%
Concentration of substrate in cell medium ([1]; SW480, 24 h): 42.23 ± 0.55 µM
Concentration of substrate in cell medium ([1]; SW480, 48 h): 42.81 ± 0.10 µM
Concentration of substrate in cell medium ([1]; SW480, 72 h): 39.28 ± 0.85 µM
IC50 [2, 10]: > 200 µM
IC50 [2, 11]: > 200 µM
IC50 [3, 12]: > 200 µM
IC50 [3, 13]: 99.6 ± 4.8 µM
Concentration of substrate in cell medium ([6]; 24 h): 48.83 ± 0.85 µM
Concentration of substrate in cell medium ([6]; 48 h): 47.02 ± 0.39 µM
Concentration of substrate in cell medium ([6]; 72 h): 43.17 ± 0.06 µM
recovery at 72 h [7]: > 80%
SMILES: O=C(O)Cc1cccc(O)c1 [3-(3′-Hydroxyphenyl)acetic acid, 3-(3′-hydroxyphenyl)acetic acid]
Maximum value in human fecal water [4]: 327 µmol/L

recovery at 72 h [5]: > 80%
Concentration of substrate in cell medium ([1]; SW480, 24 h): 52.74 ± 0.44 µM
Concentration of substrate in cell medium ([1]; SW480, 48 h): 50.70 ± 0.11 µM
Concentration of substrate in cell medium ([1]; SW480, 72 h): 49.95 ± 0.37 µM
IC50 [2, 9]: > 200 µM
IC50 [2, 10]: > 200 µM
IC50 [2, 11]: > 200 µM
IC50 [3, 13]: > 200 µM
Concentration of substrate in cell medium ([6]; 24 h): 45.51 ± 0.41 µM
Concentration of substrate in cell medium ([6]; 48 h): 46.27 ± 0.58 µM
Concentration of substrate in cell medium ([6]; 72 h): 46.28 ± 0.76 µM
recovery at 72 h [7]: > 80%
SMILES: O=C(O)CCc1cccc(O)c1 [3-(3′-Hydroxyphenyl)propanoic acid, 3-(3′-hydroxyphenyl)propanoic acid]
Maximum value in human fecal water [4]: 1810 µmol/L
Concentration in human fecal water ([4]; no dietary restriction or supplementation, ref 46 (Karlsson et al.)): 61 ± 34 µM
Mean concentration in human fecal water [4, 14]: 68 ± 93 µM
Range of concentration in human fecal water [4, 14]: 0.72 to 209 µmol/L
inhibition at 100 µM ([3]; Homo sapiens, SW480, 100 μmol/L, 72 h, read-out: Percentage of inhibition of SW480 growth): 13.3%

Concentration of substrate in cell medium ([1]; SW480, 24 h, listed as 3-O-Caffeoylquinic acid trans): 23.34 ± 0.07 µM
Concentration of newly formed metabolite ([1]; SW480, 24 h, substrate 3,5-di-O-Caffeoylquinic acid 50 μmol/L, listed as 3-O-Caffeoylquinic acid trans): 0.09 ± 0.01 µM
Concentration of substrate in cell medium ([1]; SW480, 48 h, listed as 3-O-Caffeoylquinic acid trans): 19.54 ± 0.07 µM
Concentration of newly formed metabolite ([1]; SW480, 48 h, substrate 3,5-di-O-Caffeoylquinic acid 50 μmol/L, listed as 3-O-Caffeoylquinic acid trans): 0.13 ± 0.01 µM
Concentration of newly formed metabolite ([1]; SW480, 48 h, substrate 5-O-Caffeoylquinic acid trans 50 μmol/L, listed as 3-O-Caffeoylquinic acid trans): 5.14 ± 0.07 µM
Concentration of substrate in cell medium ([1]; SW480, 72 h, listed as 3-O-Caffeoylquinic acid trans): 19.83 ± 0.05 µM
Concentration of newly formed metabolite ([1]; SW480, 72 h, substrate 5-O-Caffeoylquinic acid trans 50 μmol/L, listed as 3-O-Caffeoylquinic acid trans): 5.55 ± 0.09 µM
IC50 ([3]; SW480, 48 h of incubation): > 200 µM
IC50 ([3]; SW480, 72 h of incubation): > 200 µM
SMILES: O=C(/C=C/c1ccc(O)c(O)c1)O[C@@H]1C[C@](O)(C(=O)O)C[C@@H](O)[C@H]1O [3-O-Caffeoylquinic acid, 3-O-caffeoylquinic acid]
Percentage of inhibition of SW480 growth ([3]; 100 μmol/L, 72 h): 29.6%

Concentration of substrate in cell medium ([1]; SW480, 24 h, listed as 5-O-Caffeoylquinic acid trans): 16.76 ± 0.01 µM
Concentration of newly formed metabolite ([1]; SW480, 24 h, substrate 3,5-di-O-Caffeoylquinic acid 50 μmol/L, listed as 5-O-Caffeoylquinic acid trans): 0.08 ± 0.01 µM
Concentration of newly formed metabolite ([1]; SW480, 24 h, substrate 3-O-Caffeoylquinic acid trans 50 μmol/L, listed as 5-O-Caffeoylquinic acid trans): 4.95 ± 0.04 µM
Concentration of substrate in cell medium ([1]; SW480, 48 h, listed as 5-O-Caffeoylquinic acid trans): 17.52 ± 0.08 µM
Concentration of newly formed metabolite ([1]; SW480, 48 h, substrate 3-O-Caffeoylquinic acid trans 50 μmol/L, listed as 5-O-Caffeoylquinic acid trans): 7.37 ± 0.07 µM
Concentration of substrate in cell medium ([1]; SW480, 72 h, listed as 5-O-Caffeoylquinic acid trans): 13.96 ± 0.03 µM
Concentration of newly formed metabolite ([1]; SW480, 72 h, substrate 3,5-di-O-Caffeoylquinic acid 50 μmol/L, listed as 5-O-Caffeoylquinic acid trans): 0.29 ± 0.01 µM
Concentration of newly formed metabolite ([1]; SW480, 72 h, substrate 3-O-Caffeoylquinic acid trans 50 μmol/L, listed as 5-O-Caffeoylquinic acid trans): 11.32 ± 0.43 µM
IC50 ([3]; SW480, 48 h of incubation): > 200 µM
IC50 ([3]; SW480, 72 h of incubation): > 200 µM
SMILES: O=C(/C=C/c1ccc(O)c(O)c1)O[C@@H]1C[C@](O)(C(=O)O)C[C@@H](O)[C@H]1O [5-O-Caffeoylquinic acid, 5-O-caffeoylquinic acid]
Percentage of inhibition of SW480 growth ([3]; 100 μmol/L, 72 h): 14.7%

Concentration of substrate in cell medium ([1]; SW480, 24 h): 2.98 ± 0.07 µM
Concentration of substrate in cell medium ([1]; SW480, 48 h): 0.07 ± 0.00 µM
Concentration of substrate in cell medium ([1]; SW480, 72 h): 0.01 ± 0.00 µM
IC50 ([2]; Caco-2, 48 h of incubation): > 200 µM
IC50 ([2]; Caco-2, 72 h of incubation): > 200 µM
Decrease in IC50 value from 48 to 72 h ([3]; SW480): 1.4 fold
IC50 ([3]; SW480, 48 h of incubation): 144 ± 6.6 µM
IC50 ([3]; SW480, 72 h of incubation): 102 ± 5.3 µM
SMILES: O=c1c(O)c(-c2ccc(O[C@@H]3O[C@H](CO)[C@@H](O)[C@H](O)[C@H]3O)c(O)c2)oc2cc(O)cc(O)c12 [Quercetin-4′-O-glucoside, quercetin-4′-O-glucoside]
Increase in the number of SW480 cells in the S phase [8]: 2.5 times
